# Laboratory results: PubChem BioAssay (NCI)
# “And” between values parts separate entries of the source, which are not always exact repeats. Identical values can stand only once.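 Five concentrations, 48 hours, 96-well plates. GI50 is the concentration that inhibits growth by half. At the TGI there is no net growth.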
# Assays:
# Test in all cases: NCI anticancer screen, dose series, 48 h
# [1] = tested on: EKVX NSCLC
# [2] = tested on: HOP-62 NSCLC
# [3] = tested on: UO-31 renal
# [4] = tested on: MDA-MB-231 breast
# [5] = tested on: UACC-62 melanoma
# [6] = tested on: KM12 colon
# [7] = tested on: DU-145 prostate
# [8] = tested on: RXF 393 renal
# [9] = tested on: ACHN renal
# [10] = tested on: IGROV1 ovarian
SMILES,GI50 [1],TGI [1],GI50 [2],TGI [2],GI50 [3],TGI [3],GI50 [4],TGI [4],GI50 [5],TGI [5],GI50 [6],TGI [6],GI50 [7],TGI [7],GI50 [8],TGI [8],GI50 [9],TGI [9],GI50 [10],TGI [10]
C=C1C(=O)O[C@H]2[C@H]1CC/C(COC(=O)CCCCC(=O)OC/C1=C/CC[C@@]3(C)O[C@H]3[C@H]3OC(=O)C(=C)[C@@H]3CC1)=C\CC[C@@]1(C)O[C@@H]21,2.83 µM,> 100 µM,3.15 µM,9.61 µM,1.41 µM,4.57 µM,1.66 µM,3.57 µM,1.7 µM,4.04 µM,2.94 µM,12.4 µM,3.09 µM,> 100 µM,0.967 µM,2.31 µM,–,–,–,–
N#C/C(=C\c1ccc(-c2ccc(Cl)cc2)o1)C(=O)Nc1ncc(Cc2ccc(Cl)cc2)s1,2 µM,5.16 µM,2.26 µM,6.33 µM,2.48 µM,7.87 µM,1.64 µM,4.4 µM,2.11 µM,6.57 µM,1.83 µM,6.56 µM,2.53 µM,13.5 µM,2.32 µM,6.85 µM,1.59 µM,3.43 µM,2.2 µM,5.99 µM
Oc1ccc2cc(Br)ccc2c1-c1c(O)ccc2cc(Br)ccc12,3.54 µM,13.5 µM,2.62 µM,11.1 µM,1.96 µM,9.92 µM,1.76 µM,4.55 µM,2.2 µM,8.5 µM,2.93 µM,10.4 µM,3.29 µM,9.34 µM,2.79 µM,5.93 µM,3.02 µM,11.3 µM,2.06 µM,11.8 µM
Cc1cc(N2CCCCC2)nc(N(CCCNc2ccnc3cc(Cl)ccc23)Cc2ccco2)n1,2.42 µM,11.7 µM,1.38 µM,4.1 µM,1.17 µM,2.59 µM,1.73 µM,4.24 µM,1.89 µM,3.73 µM,2.82 µM,11.1 µM,3.14 µM,12.9 µM,1.52 µM,3.44 µM,3.3 µM,12 µM,1.82 µM,6.57 µM
CC1=NN(c2ccccc2)C(=O)C1N=Nc1ccc([As](=O)(O)O)c(O)c1 (stereo unspecified),–,> 100 µM,–,> 100 µM,–,> 100 µM,–,> 100 µM,–,> 100 µM,–,> 100 µM,–,> 100 µM,–,> 100 µM,–,> 100 µM,–,> 100 µM
C[n+]1c(/C=C\c2ccc(Cl)cc2)ccc2ccccc21,2.45 µM,> 100 µM,29.2 µM,> 100 µM,72.5 µM,> 100 µM,38.9 µM,> 100 µM,17.7 µM,52 µM,3.6 µM,15 µM,89.8 µM,> 100 µM,31.8 µM,98.3 µM,81.6 µM,> 100 µM,27.2 µM,> 100 µM
Cn1c2ccccc2c(=S)c2ccccc21,–,> 100 µM,–,> 100 µM,–,> 100 µM,–,> 100 µM,–,> 100 µM,–,> 100 µM,–,> 100 µM,–,> 100 µM,–,> 100 µM,–,> 100 µM
COC(=O)Nc1nc2ccc(Oc3ccc(NC(=O)Nc4cccc(C(=O)O)c4)cc3)cc2[nH]1,> 23 µM,> 25 µM,7.09 µM,> 22 µM,15.7 µM,> 25 µM,11.5 µM,> 25 µM,5.35 µM,> 25 µM,5.26 µM,> 21.2 µM,8.07 µM,> 25 µM,3.37 µM,10.9 µM,16.9 µM,> 25 µM,12.7 µM,> 25 µM
C=C1C(=O)O[C@@H]2C[C@@]3(C)CCC[C@H](C)C3=C[C@H]12,–,28.2 µM,–,24.7 µM,–,17.1 µM,–,27.3 µM,–,19.8 µM,–,24.8 µM,–,24.3 µM,–,18.8 µM,–,21.6 µM,–,29.6 µM
CC(=O)N1c2ccccc2C23CCN(C)CC4C(C)OCC(C4CC2=O)C13 (stereo unspecified),–,> 100 µM,–,–,–,> 100 µM,–,> 100 µM,–,> 100 µM,–,> 100 µM,–,> 100 µM,–,> 100 µM,–,> 100 µM,–,> 100 µM
Cn1ccnc1C(=O)/C=C/c1ccc(C(=O)Nc2ccc(Cl)cc2)cc1,2.34 µM,22 µM,1.04 µM,> 33.3 µM,0.905 µM,4.34 µM,1.2 µM,16.7 µM,1.55 µM,7.59 µM,–,–,1.32 µM,> 33.3 µM,0.836 µM,2.66 µM,0.62 µM,1.24 µM,0.855 µM,2.62 µM
CCCCCCCCCCCCCC(=O)O[C@H]1CC[C@H](NC(=O)[C@H](OC)[C@H](O)[C@@H](O)[C@H](O)/C=C/C(C)C)C(=O)NC1,–,36.8 µM and 23.4 µM,< 0.001 µM,51.2 µM and 34 µM,0.00883 µM,22 µM,0.00638 µM,13.5 µM,–,0.0143 µM and 0.045 µM,–,1.19 µM and 7.64 µM,0.00512 µM,34.6 µM and > 100 µM,–,0.283 µM,–,–,–,8.51 µM and 2.71 µM
